Laboratory results: patent US7498408B2, “Ryanodine receptor polypeptides” (E. I. du Pont de Nemours and Company, priority 2002, dated 2009)

Legend:
[1] = target: cockroach ryanodine receptor (roach femoral muscle membranes) (Periplaneta americana, UniProt Z9HFG3YSF4); assay: Radioligand displacement ([3H]-GN analog Cpd 1) from roach femoral muscle membranes; details: read-out: Displacement IC50 (nM) P. americana; displacement of [3H]-Cpd 1, roach muscle membranes, 60 min at 32° C.
Procedure: Mid and hind legs from 6-9 week old cockroaches were excised and immediately placed in liquid nitrogen. Excised legs could be stored at −80° C. for several months, if necessary, prior to further fractionation. Typically, membrane preparations started with approximately 55 g (wet weight) of excised legs. All subsequent steps were carried out at 4° C.
The legs were homogenized on ice using a Polytron (Brinkmann Instruments, Westbury, N.Y.) for 2 min at Setting #3. In order to remove all fragments of cuticle, the homogenate was first passed through two layers of cheesecloth and then through one layer of glass wool overlaid on two layers of cheesecloth. On occasion, the cheesecloth clogged with particulates prior to passing all material through. In such cases, fresh cheesecloth (and glass wool) was used for the remainder of the suspension. […] The supernatant was collected and centrifuged for 30 min at 30,000×gmax. The resulting pellet was resuspended in buffer A (1.5 M KCl, 0.3 M sucrose, 0.5 mM CaCl2, 20 mM Tris-HCl, pH 8.0). The membrane suspension was homogenized by hand (about 25 strokes) using a glass-teflon homogenizer. […] Subsequently, the membrane suspension was adjusted to 4 μg protein/μg by addition of buffer A and then stored in 1 ml aliquots at −80° C.
The assay was begun by addition of 25 μl of roach muscle membranes at 2 μg/μl (prepared by thawing and addition of an equal volume of buffer B), and incubation was carried out for 60 min at 32° C. Assays were carried out in triplicate.
The compound was allowed to pre-incubate with the membranes for 10 min at 32° C. […] Assays were carried out in triplicate.
Following incubation, assays were quenched with ice-cold buffer B and immediately filtered on pre-wefted Unifilter 96 GF/B filter microplates using a Unifilter 96 Harvester (PerkinElmer™, Boston, Mass.). Each assay well was then washed 10 times with buffer B, and collected on the same filter microplate. The filter microplates were then placed in a vacuum oven at 32° C. for 3 h, following which 50 μl of Microscint 0 (PerkinElmer™, Boston, Mass.) was added to each well. Plates were then heat sealed and counted using a Topcount microplate scintillation counter (PerkinElmer™, Boston, Mass.).

[2] = test system: native cockroach ryanodine receptors (in embryonic neuronal cells); assay: Calcium release assay, calcium imaging in primary embryonic cockroach neuronal cells; type: cell-based, Periplaneta americana
From the text: Embryonic neuronal cultures of the American cockroach Periplaneta americana were established, with minor modifications, following the method of Beadle and Lees (1988) (in Cell Culture Approaches to Invertebrate Neuroscience, Academic Press, New York, pp 123-127). Briefly, 26-27-day old oothecae were collected, surface-sterilized and cut open along a line one-third of the distance below the dorsal midline. The heads were removed and placed in Schneider's Drosophila medium (Invitrogen Life Technologies™, Carlsbad, Calif.). Using fine forceps 40 brains were individually removed and placed in a small glass vial containing 700 μl of ‘5+4’ medium (‘5+4’ medium contained 5 parts Schneider's Drosophila medium plus 4 parts roach Basal Medium Eagle, with Earle's salts (BME, Sigma™, St. Louis, Mo.). Roach BME (with Earle's salts) contained 5 parts Hepes (1 M), 1 part penicillin/streptomycin and 44 parts BME (with Earle's salts). ‘5+4’ medium was made fresh and sterile filtered (0.2 μm filter) just prior to use). The brains were dissociated by sequential trituration as follows: 1) brains were passed through a standard Pasteur pipette 10 times; 2) the resulting tissue suspension was passed an additional 5 times through a Pasteur pipet with tip flamed to about half of its original diameter; 3) a final 5 passes were performed using a Pasteur pipet with tip flamed to slightly less than half of its original diameter. A repeat pipettor was used to dispense a 5 μl volume of the resulting suspension into the center of each well of a 96-well, glass-bottom plate previously coated with poly-L-lysine (0.2 mg/ml solution). Cells attached to the bottom of the wells during a 50 min incubation at 27-29° C. 150 ul of a 1:1 mixture of Leibovitz's L-15 medium and Yunker's modified Grace's medium was added, and plates were maintained in a humid incubator at 27-29° C. until use. After cells were allowed to attach wells were filled with a 1:1 mixture of Leibovitz's L-15 medium and Yunker's modified Grace's medium (Leibovitz's L-15 and Grace's medium were obtained from Invitrogen Life Technologies™, Carlsbad, Calif. and Yunker's modified Grace's medium was made with Grace's medium modified by addition of 5 mg L-methionine, 10 mg L-alanine, 182 mg MgCl26H20, 1 g Albumin Fraction V, 7 ml Fetal bovine serum, 10 ml Chick embryo extract, 2 ml Penicillin/Streptomycin, and 2 mg 20-hydroxyecdysone (prepared in ethanol prior to addition) to a final volume of 100 ml and sterile filtered (0.2 μm filter)). Cells were maintained in a high humidity incubator at 29° C. until testing.
Cells were rinsed in standard physiological saline having the following composition (mM): NaCl 190; CaCl2 9; KCl 3.1; probenicid 1; Tris buffer 10; pH 7.2. Cells were then bathed in standard physiological saline containing the calcium sensitive fluoroprobe Fluo4 AM (2 μM) and Pluronic F127 (0.002%) for 45 min. Cells were then rinsed in standard physiological saline for at least 15 min prior to testing. Within the hour prior to testing, standard physiological saline was replaced with standard physiological saline containing the organic cation channel blocker pimozide (10 μM), to inhibit influx of external calcium through voltage-gated calcium channels. The 96-well plate was placed on a PriorTm motorized stage mounted onto a Nikon Diaphot microscope and imaged using a 20× Fluor objective (NA 0.75). Individual wells from the 96-well plate were sequentially excited with light at 495 nm, and the emitted fluorescence at 530 nm was detected using a Hamamatsu ORCA ER digital camera with 2 pixel binning (image size 672×512 pixels).
Acquisition control, image processing and image analysis were conducted using Universal Imaging Corporation's MetaMorph™ imaging software (Universal Imaging, West Chester, Pa.). A series of 3 “control” images were acquired for each well. Experimental compounds were added followed by acquisition of 4 “experimental” images for each well. […]

[3] = target: T1, recombinant Drosophila melanogaster ryanodine receptor (expressed in Sf9 cells) (Drosophila melanogaster, UniProt Q24498); type: cell-based
T1 construct: His tag + attB1 + Lox footprint (N-terminal vector extension; present only if the Cre-Lox vector was the one used) (N); expressed in transfected cells
From the text: (§1) Several drops of a suspension of recombinant Spodoptera frugiperda cell line, Sf9, transiently expressing insect ryanodine receptors were placed on a poly-L-lysine-coated coverslip and allowed to attach. Cells were then rinsed in physiological saline having the following composition (mM): NaCl 130; KCl 5.4; MgCl2 1.2; CaCl2 1.0; NaHCO3 4.2; NaH2P04 7.3; Glucose 10; Sucrose 63; MES 20; pH 6.3. Cells were then bathed in physiological saline containing the calcium sensitive fluoroprobe, Fura-2 AM (2 μM), and Pluronic F127 (0.002%) for 30 min. Cells were rinsed in standard physiololgical saline for at least 15 min prior to testing. Testing was conducted in standard physiological saline, as the cell lines are devoid of functional voltage-gated calcium channels.
Cell-attached coverslips were placed in a sealed chamber with physiological saline continuously perfused across the cells using a peristaltic pump. Test compounds solubilized in physiological saline were applied by switching the perfusate source.
(§2) For studies involving the stable recombinant Spodoptera frugiperda cell line, Sf9, (other cell lines could also be used such as Sf21, S2, etc) expressing an insect ryanodine receptor from Drosophila melanogaster, or Heliothis virescens (alternatively receptors from other species such as Myzus persicae, Peregrinus maidis, Aphis gossypii, etc) were grown in T75 (or other appropriate sized) flasks in supplemented Grace's insect medium. Cells were maintained in an incubator at 22° C. until testing. Cells were suspension-loaded with the calcium sensitive fluoroprobe, Fura-2 AM (1-2 μM) and Pluronic F127 (0.002%) in culture medium for 30 minutes under agitation. Cells were then centrifuged and the pellet resuspended in physiological saline having the following composition (mM): NaCl 130; KCl 5.4; MgCl2 1.2; CaCl2 1.0; NaHCO3 4.2; NaH2P04 7.3; Glucose 10; Sucrose 63; MES 20; pH 6.3 at approximately 150,000-200,000 cells per well (96-well plate). After a 30 minute equilibration period the cell plate was tested using a Molecular Devices' FlexStation™ system with dual wavelength excitation (340 and 380 nm) and fluorescence emission measured at 510 nm. Test and control samples were added using integrated fluidics and the intracellular calcium monitored over a 2 minute period.

[4] = test system: control Sf9 cells without DNA / wild type Sf9; assay: Calcium response in control or wild-type Sf9 cells lacking recombinant receptor; type: cell-based, Spodoptera frugiperda; details: caffeine 10 mM; Compound 5 3 μM
From the text: as §1
(§3) Imaging studies were conducted using a Nikon Diaphot microscope with a 40× oil immersion objective (NA 1.3) Image acquisition and processing was performed using the MetaFluor™ imaging system from Universal Imaging Corporation (West Chester, Pa.) Calcium calibration was carried out using the Grynkiewicz equation with a dissociation constant (Kd) of 145 nM for Fura-2 (Grynkiewicz et al., 1985). Cell-attached coverslips were placed in a sealed chamber with physiological saline continuously perfused across the cells using a peristaltic pump. Test compounds solubilized in physiological saline were applied by switching the perfusate source.
as §2

[5] = test system: recombinant Heliothis virescens ryanodine receptor (expressed in Sf9 cells); assay: Calcium release assay in Sf9 cells expressing recombinant Heliothis virescens ryanodine receptor; type: cell-based; details: 72 hr post-transfection; caffeine 10 mM; Cpd 5 3 μM
From the text: as §1, §3, §2

cockroach ryanodine receptor (roach femoral muscle membranes), sequence (Z9HFG3YSF4 1-5141): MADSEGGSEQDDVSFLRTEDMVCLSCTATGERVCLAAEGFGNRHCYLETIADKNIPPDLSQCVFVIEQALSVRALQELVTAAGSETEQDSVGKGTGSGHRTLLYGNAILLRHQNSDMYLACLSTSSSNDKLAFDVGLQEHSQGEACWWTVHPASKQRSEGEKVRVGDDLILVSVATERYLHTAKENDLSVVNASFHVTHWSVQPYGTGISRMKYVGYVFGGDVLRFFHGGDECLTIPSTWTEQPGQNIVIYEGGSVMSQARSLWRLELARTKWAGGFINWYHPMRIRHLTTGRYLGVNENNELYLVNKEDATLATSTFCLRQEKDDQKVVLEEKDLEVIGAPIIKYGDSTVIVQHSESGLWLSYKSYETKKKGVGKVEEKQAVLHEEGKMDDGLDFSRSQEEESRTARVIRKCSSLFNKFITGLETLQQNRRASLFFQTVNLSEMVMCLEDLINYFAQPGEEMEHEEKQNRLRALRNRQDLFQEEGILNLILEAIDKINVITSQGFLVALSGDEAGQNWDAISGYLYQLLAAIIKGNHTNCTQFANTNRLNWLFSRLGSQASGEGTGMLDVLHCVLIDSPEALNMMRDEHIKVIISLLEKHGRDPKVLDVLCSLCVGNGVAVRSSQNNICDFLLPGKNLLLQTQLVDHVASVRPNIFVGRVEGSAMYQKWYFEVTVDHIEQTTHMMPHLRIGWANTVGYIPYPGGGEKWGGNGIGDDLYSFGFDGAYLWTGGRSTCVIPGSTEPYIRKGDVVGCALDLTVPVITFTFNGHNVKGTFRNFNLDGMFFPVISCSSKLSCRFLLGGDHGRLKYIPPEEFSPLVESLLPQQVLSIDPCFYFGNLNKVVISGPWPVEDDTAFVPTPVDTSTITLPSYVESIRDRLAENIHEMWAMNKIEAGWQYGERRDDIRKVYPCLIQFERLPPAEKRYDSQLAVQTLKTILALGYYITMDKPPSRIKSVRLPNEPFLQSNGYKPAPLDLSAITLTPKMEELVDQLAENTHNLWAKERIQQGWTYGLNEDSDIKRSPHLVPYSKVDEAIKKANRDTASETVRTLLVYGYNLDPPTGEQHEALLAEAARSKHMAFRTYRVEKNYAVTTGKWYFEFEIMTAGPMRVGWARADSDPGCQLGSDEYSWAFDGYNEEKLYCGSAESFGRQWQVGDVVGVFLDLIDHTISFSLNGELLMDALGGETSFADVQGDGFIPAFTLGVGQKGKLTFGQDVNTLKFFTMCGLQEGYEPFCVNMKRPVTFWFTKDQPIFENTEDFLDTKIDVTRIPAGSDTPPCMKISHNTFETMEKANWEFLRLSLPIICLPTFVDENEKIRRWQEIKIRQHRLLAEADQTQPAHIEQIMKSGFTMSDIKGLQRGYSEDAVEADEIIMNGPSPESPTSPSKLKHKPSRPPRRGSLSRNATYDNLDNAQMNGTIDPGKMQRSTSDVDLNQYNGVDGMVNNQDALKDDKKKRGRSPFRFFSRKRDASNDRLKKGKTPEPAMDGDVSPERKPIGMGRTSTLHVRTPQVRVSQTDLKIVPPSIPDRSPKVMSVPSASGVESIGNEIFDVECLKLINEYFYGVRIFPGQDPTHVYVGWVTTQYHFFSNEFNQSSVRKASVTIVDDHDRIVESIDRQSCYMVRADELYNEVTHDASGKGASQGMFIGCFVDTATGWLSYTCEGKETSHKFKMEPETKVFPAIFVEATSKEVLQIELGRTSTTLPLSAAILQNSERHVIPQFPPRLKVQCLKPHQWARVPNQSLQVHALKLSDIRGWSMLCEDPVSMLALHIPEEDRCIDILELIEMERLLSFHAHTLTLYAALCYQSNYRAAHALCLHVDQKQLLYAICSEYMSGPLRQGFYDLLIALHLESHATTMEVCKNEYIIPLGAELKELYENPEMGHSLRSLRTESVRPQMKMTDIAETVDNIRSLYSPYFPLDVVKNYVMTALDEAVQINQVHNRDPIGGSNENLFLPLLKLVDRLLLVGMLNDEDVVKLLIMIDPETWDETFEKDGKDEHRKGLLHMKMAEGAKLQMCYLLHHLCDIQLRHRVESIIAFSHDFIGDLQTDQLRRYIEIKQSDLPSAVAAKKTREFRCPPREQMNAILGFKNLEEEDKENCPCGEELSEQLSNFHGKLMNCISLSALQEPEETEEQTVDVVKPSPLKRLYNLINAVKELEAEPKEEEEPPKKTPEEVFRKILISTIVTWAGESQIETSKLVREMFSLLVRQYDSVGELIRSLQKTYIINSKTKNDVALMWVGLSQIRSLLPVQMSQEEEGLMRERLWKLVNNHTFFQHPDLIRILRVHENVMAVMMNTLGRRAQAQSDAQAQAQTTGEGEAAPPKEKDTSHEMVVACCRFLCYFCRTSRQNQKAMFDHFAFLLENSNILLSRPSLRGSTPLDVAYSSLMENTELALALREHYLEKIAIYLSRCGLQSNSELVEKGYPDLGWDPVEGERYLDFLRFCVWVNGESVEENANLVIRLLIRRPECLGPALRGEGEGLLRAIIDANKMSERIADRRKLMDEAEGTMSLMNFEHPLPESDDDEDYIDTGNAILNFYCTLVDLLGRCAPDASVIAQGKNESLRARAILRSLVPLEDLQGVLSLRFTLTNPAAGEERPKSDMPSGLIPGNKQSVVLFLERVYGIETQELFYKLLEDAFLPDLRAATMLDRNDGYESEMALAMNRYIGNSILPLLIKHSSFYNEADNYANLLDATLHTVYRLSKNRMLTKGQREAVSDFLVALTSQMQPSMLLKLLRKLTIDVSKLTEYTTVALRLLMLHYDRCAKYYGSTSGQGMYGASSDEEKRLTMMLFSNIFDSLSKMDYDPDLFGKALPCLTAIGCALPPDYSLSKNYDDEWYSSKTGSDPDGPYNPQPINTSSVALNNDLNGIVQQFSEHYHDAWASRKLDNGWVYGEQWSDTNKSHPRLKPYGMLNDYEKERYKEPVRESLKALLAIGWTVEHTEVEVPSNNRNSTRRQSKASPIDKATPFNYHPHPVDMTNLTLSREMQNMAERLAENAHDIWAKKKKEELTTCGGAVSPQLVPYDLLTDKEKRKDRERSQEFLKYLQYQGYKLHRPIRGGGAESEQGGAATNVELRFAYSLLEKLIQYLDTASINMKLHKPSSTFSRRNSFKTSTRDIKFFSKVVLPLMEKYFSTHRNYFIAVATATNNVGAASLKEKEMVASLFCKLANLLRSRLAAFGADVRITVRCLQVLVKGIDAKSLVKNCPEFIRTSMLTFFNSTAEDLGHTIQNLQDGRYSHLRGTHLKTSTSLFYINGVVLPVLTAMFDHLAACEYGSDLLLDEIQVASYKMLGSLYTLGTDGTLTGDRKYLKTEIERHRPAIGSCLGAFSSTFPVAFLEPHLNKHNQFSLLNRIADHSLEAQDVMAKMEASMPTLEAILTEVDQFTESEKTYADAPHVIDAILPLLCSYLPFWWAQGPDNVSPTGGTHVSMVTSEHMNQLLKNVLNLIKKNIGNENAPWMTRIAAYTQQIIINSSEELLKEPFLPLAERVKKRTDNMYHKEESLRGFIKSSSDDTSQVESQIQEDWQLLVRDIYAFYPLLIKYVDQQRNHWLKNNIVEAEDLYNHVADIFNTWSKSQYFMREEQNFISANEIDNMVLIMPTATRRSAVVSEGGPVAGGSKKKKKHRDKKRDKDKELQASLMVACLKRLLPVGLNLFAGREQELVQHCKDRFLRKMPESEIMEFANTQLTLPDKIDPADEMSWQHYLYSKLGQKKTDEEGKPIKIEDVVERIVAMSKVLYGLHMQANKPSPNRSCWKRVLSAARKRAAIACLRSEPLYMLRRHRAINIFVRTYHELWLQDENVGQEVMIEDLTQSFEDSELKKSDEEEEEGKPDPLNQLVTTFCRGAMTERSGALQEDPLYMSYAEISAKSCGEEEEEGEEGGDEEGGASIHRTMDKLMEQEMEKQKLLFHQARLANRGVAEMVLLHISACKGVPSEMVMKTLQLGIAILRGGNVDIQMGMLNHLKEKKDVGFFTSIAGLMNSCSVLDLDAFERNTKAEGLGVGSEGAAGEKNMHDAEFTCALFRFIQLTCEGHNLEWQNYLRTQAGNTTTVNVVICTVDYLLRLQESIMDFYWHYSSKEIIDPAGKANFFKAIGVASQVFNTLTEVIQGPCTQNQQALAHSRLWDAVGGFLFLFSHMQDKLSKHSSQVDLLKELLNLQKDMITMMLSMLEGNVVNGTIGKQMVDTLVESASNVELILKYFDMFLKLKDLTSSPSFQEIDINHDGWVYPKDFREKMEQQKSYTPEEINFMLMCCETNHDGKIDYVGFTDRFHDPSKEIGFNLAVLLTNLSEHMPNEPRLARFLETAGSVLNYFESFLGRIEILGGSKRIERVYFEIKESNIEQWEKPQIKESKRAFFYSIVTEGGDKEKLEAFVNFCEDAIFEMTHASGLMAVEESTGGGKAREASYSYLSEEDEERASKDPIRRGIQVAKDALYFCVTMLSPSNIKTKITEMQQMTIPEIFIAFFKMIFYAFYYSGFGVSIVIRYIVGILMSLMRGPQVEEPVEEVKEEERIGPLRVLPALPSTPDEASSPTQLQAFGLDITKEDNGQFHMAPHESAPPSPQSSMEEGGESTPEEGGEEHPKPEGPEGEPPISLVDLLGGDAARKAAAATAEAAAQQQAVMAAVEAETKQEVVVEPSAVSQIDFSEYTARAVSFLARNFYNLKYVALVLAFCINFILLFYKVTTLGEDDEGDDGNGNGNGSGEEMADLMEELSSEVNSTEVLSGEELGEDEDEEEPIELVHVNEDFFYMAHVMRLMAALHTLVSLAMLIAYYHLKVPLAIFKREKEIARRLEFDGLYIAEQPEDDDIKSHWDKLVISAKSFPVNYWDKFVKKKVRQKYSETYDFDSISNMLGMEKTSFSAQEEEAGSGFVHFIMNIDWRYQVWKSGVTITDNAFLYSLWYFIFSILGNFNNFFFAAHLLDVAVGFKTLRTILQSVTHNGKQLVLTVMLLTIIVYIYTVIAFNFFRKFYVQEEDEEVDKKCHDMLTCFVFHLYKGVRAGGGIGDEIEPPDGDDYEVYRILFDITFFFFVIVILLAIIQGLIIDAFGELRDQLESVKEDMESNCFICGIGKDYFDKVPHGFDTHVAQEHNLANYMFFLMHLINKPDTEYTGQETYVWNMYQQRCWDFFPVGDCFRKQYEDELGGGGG

`Cc1cccc(C(=O)NC(C)C)c1NC(=O)c1cc(C(F)(F)F)nn1-c1ncccc1Cl` [Cpd 5, 1-(3-Chloro-2-pyridinyl)-N-[2-methyl-6-[[(1-methylethyl)amino]carbonyl]phenyl]-3-(trifluoromethyl)-1H-pyrazole-5-carboxamide] was tested, and the IC50 [1] was less than 300 nM, the “Calcium Release Threshold (nM) P. americana” value [2] was less than 300 nM and the “Calcium Release Threshold (nM) D. melanogaster” value [3] was less than 300 nM. The “calcium responses in control cells without DNA (FIG. 4)” value [4] was “No significant calcium responses” and the “cytosolic [Ca2+], Sf9 transiently expressing H. virescens ryanodine receptor (FIG. 4)” value [5] was “increase in cytosolic [Ca^2+]”.
